# Data published in patent US20090022803A1, “Oral Formulations For Delivery of Catecholic Butanes Including Ndga Compounds” (priority 2005, published 2009).
# Assay: Stability of M4N formulations at room temperature (time to crystallized precipitation)
# Assay type: physicochemical
# Protocol: A 10 mL solution of M4N at a concentration of about 10 mg/mL in 40% BP-β-CD was made as follows. About 10 mL of the 40% HP-β-CD solution were added to a glass beaker containing a stir bar. The beaker was placed on a magnetic plate and the stir bar was set to stir at medium speed. About […] of M4N were slowly added to the 40% HP-β-CD in the center of the beaker with the aid of a spatula. The M4N/40% HP-β-CD mixture was stirred for 2 hr or until all M4N was uniformly suspended without any clumps being present. The M4N/40% HP-β-CD mixture was optionally heated at 80° C. for about 30 min. (or longer if a larger volume of solution was desired, for example, 1 hr at 80° C. for 100 mL of the M4N/HP-β-CD mixture), or longer as needed to ensure complete dissolution of M4N. […] The final M4N/40% HP-β-CD solution was stored at room temperature and was kept protected from light. This process may be scaled up or down to obtain the requisite volume or concentration of M4N. Formulations containing M4N in other cyclodextrin solutions may be similarly made, such as, for example, by substituting HP-β-CD in the process described above with other cyclodextrins.
# A 100 mL solution of M4N at a concentration of about 25 mg/mL in PEG 300 was made as follows. About 100 mL of PEG 300 were added to a glass beaker containing a stir bar. The beaker was placed on a magnetic plate and the stir bar was set to stir at medium speed. About 2.5 g of M4N were slowly added to the PEG 300 in the center of the beaker with the aid of a spatula to prevent M4N from sticking to the beaker wall. The M4N/PEG 300 mixture was stirred for 24 hr or until all M4N had dissolved or was uniformly suspended without any clumps being present. The M4N/PEG 300 mixture was optionally heated at about 60° C. for about 30 min. (or longer if a larger volume of solution was desired, for example, 1 hr at 60° C. for 500 mL of the M4N/PEG 300 mixture), or longer as needed to ensure complete dissolution of M4N. […] If crystals formed, the M4N/PEG 300 solution could be heated again at 60° C. for about 1 hr, with stirring, on a hot magnetic plate until all M4N was dissolved back in solution. The final M4N/PEG 300 solution was stored at room temperature and was kept protected from light. This process may be scaled up or down to obtain the requisite volume or concentration of M4N. Formulations containing M4N in other PEGs may be similarly made, such as, for example, by substituting PEG 300 in the process described above with PEG 400 or PEG 400 monolaurate.
# Formulations containing M4N in other water-insoluble lipids combined with non-ionic, ionic or amphipathic surfactants or water-soluble organic solvents may be similarly made, such as, for example, by substituting sesame oil in the process described above with corn oil, olive oil, soybean oil, peppermint oil, or mineral oil and substituting Tween® 20 with Tween® 80, TPGS, lecithin, PEG 300, PEG 400, PEG 400 monolaurate, glycerol, PVP, PG, or other solubilizing agents, and combinations thereof. Stability in reference to the clear liquid solutions herein refers to the time it takes to form crystallized precipitation in solution. A stable solution is one that is clear and free of particulates for an extended period of time.
smiles,measurement,setting,value
"COc1ccc(C[C@@H](C)[C@@H](C)Cc2ccc(OC)c(OC)c2)cc1OC [Formulation M4N, meso-1,4-bis(3,4-dimethoxyphenyl)-2,3-dimethylbutane]",Stability at Room Temperature,"0.3% (v/v) Piperin, 49.8% (v/v) PEG 400, 49.8% (v/v) Tween ® 20, M4N 60 mg/mL, suspension",>9 days
same,Stability at Room Temperature,"0.4% (v/v) Cinnamadehyde, 49.8%(v/v) PEG 400, 49.8% (v/v) Tween ® 20, M4N 60 mg/mL",>4 days
same,Stability at Room Temperature,"0.4% (v/v) Cinnamaldehyde, 4.6% (v/v) Peppermint Oil, 47.5% (v/v) PEG 400, 47.5% (v/v) Tween ® 20, M4N 60 mg/mL",>2 days
same,Stability at Room Temperature,"0.4% (v/v) Eugenol, 49.8% (v/v) Tween ® 20, 49.8% (v/v) PEG 400, M4N 60 mg/mL",>2 days
same,Stability at Room Temperature,"3% (w/v)Glycerol Monostearate, 48.5% (v/v) PEG 400, 48.5% (v/v) Tween ® 20, M4N 60 mg/mL",>1 days
same,Stability at Room Temperature,"5% (v/v) Peppermint Oil, 47.5% (v/v) Tween ® 20, 47.5% (v/v) PEG 400, M4N 60 mg/mL",>2 days
same,Stability at Room Temperature,"10% TPGS (w/v), 50% PEG 400 (v/v), M4N 50 mg/ml, suspension",>7 days
same,Stability at Room Temperature,"25%(w/v) Lecithin, 37.5% (v/v) PEG 400, 37.5% (v/v) Tween ® 20, M4N 60 mg/mL",>14 days
same,Stability at Room Temperature,"47.5% (v/v) Tween ® 20, 47.5% (v/v) PEG 400, 2.5% (w/v) Beeswax 2.5% (w/v) PEG 3350, M4N 60 mg/mL",>4 days
same,Stability at Room Temperature,"47.5% Tween ® 20 (v/v), 47.5% PEG 400 (v/v), 5% Beeswax (w/v), M4N 200 mg/g, waxy solid",>3 days
same,Stability at Room Temperature,"50% Tween ® 20 (v/v), 50% PEG 400 (v/v), M4N 30 mg/ml",>3 days
same,Stability at Room Temperature,"50% Tween ® 20 (v/v), 50% PEG 400 (v/v), M4N 40 mg/ml",>3 days
same,Stability at Room Temperature,"50% Tween ® 20 (v/v), 50% PEG 400 (v/v), M4N 50 mg/ml",>3 days
same,Stability at Room Temperature,"50% Tween ® 20 (v/v), 50% PEG 400 (v/v), M4N 60 mg/ml",>3 days
same,Stability at Room Temperature,"50.3% (v/v) Tween ® 20, 44.6% (v/v) PEG 400, 2.4% (w/v) Beeswax, 2.4% (w/v) PEG 3350, 0.3% (w/v) Naringenin, M4N 60 mg/mL",>4 days
same,Stability at Room Temperature,"Glycerol Monoleate 100% (w/v), M4N 0.10 mg/ml, remains in suspension, can be mixed back together",for up to 10 days
same,Stability at Room Temperature,"Glycerol Monoleate 100% (w/v), M4N 0.25 mg/ml, remains in suspension, can be mixed back together",for up to 10 days
same,Stability at Room Temperature,"Glycerol Monoleate 100% (w/v), M4N 1.00 mg/ml, remains in suspension, can be mixed back together",for up to 10 days
same,Stability at Room Temperature,"Glycerol Monoleate 100% (w/v), M4N 5.0 mg/ml, remains in suspension, can be mixed back together",for up to 10 days
same,Stability at Room Temperature,"Glycerol Monoleate 100% (w/v), M4N 10.0 mg/ml, remains in suspension, can be mixed back together",for up to 10 days
same,Stability at Room Temperature,"Glycerol Monoleate 100% (w/v), M4N 12.0 mg/ml, remains in suspension, can be mixed back together",for up to 10 days
same,Stability at Room Temperature,"Glycerol Monoleate 100% (w/v), M4N 15.0 mg/ml, remains in suspension, can be mixed back together",for up to 10 days
same,Stability at Room Temperature,"Glycerol Monoleate 100% (w/v), M4N 17.5 mg/ml, remains in suspension, can be mixed back together",for up to 10 days
same,Stability at Room Temperature,"Glycerol Monoleate 100% (w/v), M4N 20.0 mg/ml, remains in suspension, can be mixed back together",for up to 10 days
same,Stability at Room Temperature,"Glycerol Monoleate 100% (w/v), M4N 25.0 mg/ml, remains in suspension, can be mixed back together",for up to 10 days
same,Stability at Room Temperature,"Glycerol Monoleate 100% (w/v), M4N 30.0 mg/ml, remains in suspension, can be mixed back together",for up to 10 days
same,Stability at Room Temperature,"Glycerol Monoleate 100% (w/v), M4N 40.0 mg/ml, remains in suspension, can be mixed back together",for up to 10 days
same,Stability at Room Temperature,"Glycerol Monoleate 100% (w/v), M4N 50.0 mg/ml, remains in suspension, can be mixed back together",for up to 10 days
same,Stability at Room Temperature,"Glycerol Monoleate 100% (w/v), M4N 60.0 mg/ml, remains in suspension, can be mixed back together",for up to 10 days
same,Stability at Room Temperature,"Glycerol Monoleate 100% (w/v), M4N 65.0 mg/ml, remains in suspension, can be mixed back together",for up to 10 days
same,Stability at Room Temperature,"Glycerol Monoleate 100% (w/v), M4N 70.0 mg/ml, remains in suspension, can be mixed back together",for up to 10 days
same,Stability at Room Temperature,"Glycerol Monoleate 100% (w/v), M4N 80.0 mg/ml, remains in suspension, can be mixed back together",for up to 10 days
same,Stability at Room Temperature,"Glycerol Monoleate 100% (w/v), M4N 100.0 mg/ml, remains in suspension, can be mixed back together",for up to 10 days
same,Stability at Room Temperature,"Glycerol Monoleate 100% (w/v), M4N 200.0 mg/ml, remains in suspension, can be mixed back together",for up to 10 days
same,Stability at Room Temperature,"Glycerol Monoleate 100% (w/v), M4N 300.0 mg/ml, remains in suspension, can be mixed back together",for up to 10 days
same,Stability at Room Temperature,"Labrafil ® 100%, M4N 60 mg/mL",>4 days
same,Stability at Room Temperature,"Labrasol ® 100%, M4N 50 mg/mL",>4 days
same,Stability at Room Temperature,"Labrasol ® 100%, M4N 60 mg/mL",>4 days
same,Stability at Room Temperature,"Labrasol ® 100%, M4N 70 mg/mL",>4 days
same,Stability at Room Temperature,"Labrasol ® 100%, M4N 80 mg/mL",>4 days
same,Stability at Room Temperature,M4N 1 mg/mL in 20% HP-β-CD,>7 days
same,Stability at Room Temperature,M4N 1 mg/mL in 30% HP-β-CD,>7 days
same,Stability at Room Temperature,M4N 1 mg/mL in 50% HP-β-CD,>7 days
same,Stability at Room Temperature,"M4N 1 mg/mL in 50% HP-β-CD, 1.25% PVP (w/v)",<3 days
same,Stability Time at Room Temperature,M4N 1 mg/mL in Peppermint Oil,>3 days
same,stable at room temperature,M4N 1 mg/mL in Tween® 20,more than 7 days
same,stable at room temperature,M4N 1 mg/mL in Tween® 80,more than 3 days
